From US20080171037A1, “Apo-3 ligand polypeptide” (Genentech, Inc., priority 1997, published 2008)
Where a SMILES comes first, the peptide text is derived from it. The star is where a group is joined. Cbz = O=C(OCc1ccccc1)*; CH2F = FC*

Tests used:
[1] = tested on: MCF-7 breast carcinoma cells; experiment: Apoptosis in MCF-7 breast carcinoma cells (microscopy, Hoechst dye); assay type: cell-based, human; settings: MCF-7 cells pre-treated 1 hour, then 14 hours with ligand, FIG. 9B
Experimental: Human MCF-7 breast carcinoma cells (ATCC HTB 22) were pre-treated for 1 hour with cyclohexamide (CHX) (10 μg/ml) and incubated for 14 hours with soluble Apo-3 Ligand (2 μg/ml; prepared as described in Example 3 above) alone or together with zVAD-fmk (Research Biochemicals) (100 nM). The cells were then stained with Hoechst dye and photographed by phase (FIG. 9A, left) and by fluorescence (FIG. 9A, right) microscopy. In FIG. 9A, arrowheads indicate some of the apoptotic cells (left) and their condensed nuclei (right).
In a separate experiment, the MCF-7 cells were pre-treated for 1 hour with buffer or CHX, incubated for an additional 14 hours with the indicated concentrations of soluble Apo-3 Ligand (see FIG. 9B), and apoptotic or live cells were score by microscopy.

HeLa cells = experiment: Apoptosis in HeLa cells transfected with full length Apo-3 Ligand (FACS, annexin V binding); assay type: cell-based, human; settings: HeLa cells, inhibitor 200 μM, FIG. 6
Experimental: A pRK5 plasmid (see EP 307,247) encoding Apo-3 Ligand polypeptide (amino acids 1 to 249 of FIG. 1), or empty pRK5 plasmid, was transiently transfected along with a pRK5 plasmid encoding human CD4 as a marker for transfection into human HeLa cells by electroporation, and the cells were plated in tissue culture dishes. Four hours later, the caspase inhibitor z-VAD-fmk (Research Biochemicals) (200 μM) was added to some of the dishes. Twenty hours later, apoptosis was determined by FACS analysis of cells positive for the CD4 marker by measuring binding of fluorescein isothiocyanate (FITC)-conjugated annexin V (Brand Applications) (see WO 97/25428).

[2] = tested on: Jun N-terminal kinase (JNK/SAPK); experiment: JNK/SAPK activity in 293 cells transfected with full length Apo-3 Ligand; assay type: cell-based, human; settings: 293 cells, inhibitor 200 μM, FIG. 7
Experimental: The pRK5 plasmid encoding Apo-3 Ligand polypeptide or empty pRK5 plasmid (see Example 6 above) was transiently transfected into human 293 cells (ATCC CCL 1573) by calcium phosphate precipitation. Four hours later, one set of cells was treated with z-VAD-fmk (Research Biochemicals) (200 μM). Twenty hours later, the cells were harvested and analyzed for activity of Jun N-terminal kinase (JNK; also called stress activated protein kinase or SAPK) using a commercially available JNK/SAPK assay kit (New England Biolabs), and according to the manufacturer's instructions.

[3] = tested on: HeLa S3 cervical carcinoma cells; experiment: Apoptosis in HeLa S3 cells (DNA fragmentation analysis); assay type: cell-based, human; settings: HeLa S3 cells, inhibitor 100 nM, FIG. 9C
Experimental: HeLa S3 cervical carcinoma cells (ATCC CCL 2.2) were similarly pre-treated with CHX and then incubated with soluble Apo-3 Ligand (prepared as described in Example 3 above) alone or together with zVAD-fmk or DEVD-fmk (Research Biochemicals) (100 nM). The treated cells were then subjected to DNA fragmentation analysis.

DR5 = biological target: T1, DR5 (Homo sapiens, UniProt O14763); experiment: Co-immunoprecipitation binding assay with DR5 ECD; settings: ligand and receptor 1 μg/ml, FIG. 8A
T1 construct: the ECD of the Apo-2L receptor, DR5; made in house
Experimental: A Flag-epitope tagged soluble Apo-3 was produced (as described for DR5 in Sheridan et al., Science, 277:818 (1997)) and tested in a co-immunoprecipitation assay to examine its ability to associate with a histidine tagged soluble Apo-3 Ligand (see Example 3 above). […] The respective ligands (1 μg/ml) and receptors (1 μg/ml) were incubated for 1 hour at room temperature. The reaction mixtures were subjected to precipitation with anti-Flag antibody conjugated to sepharose beads (Kodak) (FIG. 8A, left) or nickel-sepharose (Qiagen) (FIG. 8A, right) by overnight incubation at 4° C. according to manufacturer's instructions and resolved by gel electrophoresis. The ligands were visualized by Western blot analysis with nickel-conjugated horseradish peroxidase. In FIG. 8A, molecular weight markers (kDa) are indicated on the left.

Apo-3 Ligand = biological target: T2, Apo-3 Ligand (Homo sapiens, UniProt O43508); experiment: Apoptosis induction by Apo-3 Ligand after preincubation with Flag tagged Apo-3 and immunodepletion; assay type: cell-based; settings: preincubation of ligand and immunodepletion of complexes with anti-Flag beads, FIG. 8B
T2 construct: made in house; host or cells: E. coli
T2 sequence (O43508 47-249): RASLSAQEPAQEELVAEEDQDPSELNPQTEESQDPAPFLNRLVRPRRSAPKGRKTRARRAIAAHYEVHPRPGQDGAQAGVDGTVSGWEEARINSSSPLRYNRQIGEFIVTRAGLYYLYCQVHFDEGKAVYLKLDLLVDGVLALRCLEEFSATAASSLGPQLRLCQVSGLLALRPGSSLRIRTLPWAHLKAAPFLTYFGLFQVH
Source text: Thus, there appeared to be a specific complex formation between Apo-3 Ligand and Apo-3.

T1 sequence (O14763 56-184 limits assumed): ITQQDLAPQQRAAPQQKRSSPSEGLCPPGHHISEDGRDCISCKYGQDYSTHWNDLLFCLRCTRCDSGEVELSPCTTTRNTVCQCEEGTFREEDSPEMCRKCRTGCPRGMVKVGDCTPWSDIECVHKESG

For `C[C@@H]1C[C@@H]([C@H](O)CC2CC(=O)NC(=O)C2)C(=O)[C@@H](C)C1` [cyclohexamide, reference compound], the “effect on Apo-3 ligand-induced apoptosis” value [1] was “augmented”.
`COC(=O)C[C@H](NC(=O)[C@H](C)NC(=O)[C@@H](NC(=O)OCc1ccccc1)C(C)C)C(=O)CF` [z-VAD-fmk, reference compound] (Cbz-Val-Ala-Asp(OMe)-CH2F) was tested, and the “effect on the increase in apoptosis by Apo-3 Ligand transfection” value (HeLa cells) was “blocked”, the “effect on JNK activation by Apo-3 Ligand” value [2] was “augmented JNK activation” and the “effect on induction of apoptosis by Apo-3 Ligand” value [3] was “blocked induction of apoptosis”.
In the case of “Apo-2 Ligand: TNF family cytokine, also referred to as TRAIL, tested for comparison”, the “binding to DR5” value (DR5) is reported as “bound to DR5”.
DEVD-fmk was tested, and the “effect on induction of apoptosis by Apo-3 Ligand” value [3] was “blocked induction of apoptosis”.
For “Flag tagged Apo-3: Flag-epitope tagged soluble Apo-3 receptor (also DR3, Wsl-1, TRAMP, LARD)”, the “effect on apoptosis induction by Apo-3 Ligand” value (Apo-3 Ligand) was “inhibited apoptosis induction”.
